How the values were obtained:
[1] = cited from earlier work
[2] = Preservation of color and viscosity of the composition over time; assay type: physicochemical; conditions: used instead of ascorbic acid in the gel
Protocol: Gels were prepared according to the mixing procedure of Example 1, but with amounts of the ingredients to achieve molarities of those ingredients as shown below. Euxyl® PE9010 is a preservative having phenoxyethanol as the active ingredient (Schülke and Mayr, 30 Two Bridges Road Suite 225, Fairfield, N.J. 07004, USA).

Row | Structure (SMILES) | pKa [1] | color and viscosity stability of composition [2]
1 | O=NO [Nitrous acid] | 3.37 | –
2 | CCOC1=C(O)C(=O)O[C@@H]1[C@@H](O)CO [3-O-ethyl ascorbic acid] | – | preserves the color and viscosity of the composition over long periods of time

— patent US20130330244A1, “COMPOSITIONS AND METHODS FOR TOPICAL NITRIC OXIDE GENERATION” (NIOXX LLC, priority 2011, published 2013)
